# Data from patent publication US10709750B2, “Female menopause alleviation use of composition containing composite extract of red clover and pomegranate as active ingredient” (HLSCIENCE CO., LTD, priority 2014, dated 2020).
# Marks after values point to notes of the source that are not given here.
# Key:
# Assay type in all cases: in vivo
# Details in all cases: 120 mg/kg po; estradiol 0.03 μg/head sc
# OVX ddY mice [1] = test: Body weight and food consumption in OVX ddY mice, once daily for 84 days
# Protocol: That is, the experiment was performed after dividing into sterile distilled water 10 ml/kg administered vehicle control after sham surgery (hereinafter sham control), sterile distilled water 10 ml/kg administered vehicle control after OVX surgery (hereinafter OVX control), pomegranate extract single formula 120 mg/kg administered group (PCP) after OVX, and 9 types of red clover:pomegranate extract mixed formula (g/g) administered groups after OVX surgery including red clover:pomegranate extract 1:1 (g/g) mixed formula 120 mg/kg administered group after OVX surgery (1-1), red clover:pomegranate extract 1:2 (g/g) mixed formula 120 mg/kg administered group after OVX surgery (1-2), red clover:pomegranate extract 1:4 (g/g) mixed formula 120 mg/kg administered group after OVX surgery (1-4), red clover:pomegranate extract 1:6 (g/g) mixed formula 120 mg/kg administered group after OVX surgery (1-6), red clover:pomegranate extract 1:8 (g/g) mixed formula 120 mg/kg administered group after OVX surgery (1-8), red clover:pomegranate extract 2:1 (g/g) mixed formula 120 mg/kg administered group after OVX surgery (2-1), red clover:pomegranate extract 4:1 (g/g) mixed formula 120 mg/kg administered group after OVX surgery (4-1), red clover:pomegranate extract 6:1 (g/g) mixed formula 120 mg/kg administered group after OVX surgery (6-1), and red clover:pomegranate extract 8:1 (g/g) mixed formula 120 mg/kg administered group after OVX surgery (8-1).
# (§1) Optimal amounts of red clover extract or pomegranate extract were suspended or dissolved in sterile distilled water, and orally administered at a dose of 10 ml/kg once daily for 84 days from 28 days after OVX. That is, red clover extract and pomegranate extract single formula, and red clover:pomegranate extract 1:1, 1:2, 1:4, 1:6, 1:8, 2:1, 4:1, 6:1 and 8:1 (g/g) mixture 120 mg/kg were each orally administered for 84 days, and sham control and OVX control were orally administered with only sterile distilled water as a vehicle at the same dose for the same period instead of the test material, and according to earlier researchers' method [Chiba et al., 2003; Murakami et al., 2007; Tousen et al., 2011], 0.03 ug of 17β-estradiol (Sigma-Aldrich, St. Louise, Mo., USA) was dissolved in 0.2 ml of sterile saline, and subcutaneously administered to back skin at a dose of 0.2 ml/mouse (0.03 μg/head/day) once daily for 84 days from 28 days after OVX surgery (Table 15, FIG. 18). The administration dose of mixed formula was set higher 12 times than a human clinical dose of 600 mg, i.e., 600 mg/60 kg)×12=120 mg/kg, in consideration of a body surface area of mouse, and the dose of each of red clover extract and pomegranate extract single formula was also set as 120 mg/kg for direct comparative evaluation of efficacy.
# That is, all experimental animals except sham control were randomly selected and underwent bilateral ovariectomy to induce estrogen deficient menopausal disorder. On the other hand, in sham operated group, both ovaries were detected by the same method but incisions were not made, and abdominal cavities were closed again. At 27 days after surgery, based on body weights (OVX mice: 30.71±1.65 g, 28.0-35.1 g; sham operated mice: 26.99±1.46 g, 24.4-28.7 g), 8 mice per group were selected from all experimental animals including sham operated group, and used for experiments.
# More specifically, the anti-obesity and estrogen-like effects were tested as follows. The body weights on OVX surgery date, 1 day before administration (27 days after OVX), the start date of administration, and from the first day after start of administration up to the time of final sacrifice at least once a week were each recorded, and change amounts of body weights, i.e., body weight gains, for the recovery period after OVX (menopausal disorder induction period) and 12 weeks after start of administration were measured. […]
# OVX ddY mice [2] = test: Abdominal fat pad, uterus and liver weights in OVX ddY mice
# Protocol: as §1
# (§2) More specifically, the anti-obesity and estrogen-like effects were tested as follows. The body weights on OVX surgery date, 1 day before administration (27 days after OVX), the start date of administration, and from the first day after start of administration up to the time of final sacrifice at least once a week were each recorded, and change amounts of body weights, i.e., body weight gains, for the recovery period after OVX (menopausal disorder induction period) and 12 weeks after start of administration were measured. Food consumption (1, 3, 7, 28, 56 and 83 days after start of administration), serum estradiol levels, amounts of body fat and abdominal fat, weights of abdominal fat pad and uterus, histological changes of uterus and abdominal fat pads (changes in abdominal fat pad thickness and mean adipocyte diameter, thickness of uterus total, epithelium and mucosa, and percentage of uterine glands in the mucosa (FIG. 19) were observed.
# (§3) Furthermore, to ascertain the protective effect against fatty liver, testing was conducted as follows. Liver weight, serum AST and ALT levels, and histological changes of liver (changes in mean hepatocyte diameter and region with hepatic degeneration showing fatty change) were observed.
# OVX ddY mice [3] = test: Femur weights in OVX ddY mice
# Protocol: as §1
# (§4) The osteoporosis reduction effect was ascertained through histological changes in wet, dry and ash weights of femurs, BMD (FIG. 20), bone strength (FIG. 21), serum osteocalcin and bALP levels, bone mass and structure (trabecular bone mass, trabecular bone number, thickness and length, and cortical bone thickness), and bone resorption (osteoclast cell number and osteoclast cell surface (OS/BS)).
# OVX ddY mice [4] = test: Serum biochemistry in OVX ddY mice
# Protocol: as §1, §2, §3
# The hyperlipidemia inhibitory effect was ascertained through changes in serum TC, LDL, HDL and TG levels.
# as §4
# OVX ddY mice [5] = test: Bone mineral density and fat density (DEXA) in OVX ddY mice
# Protocol: as §1, §2, §4
# OVX ddY mice [6] = test: Femur bone strength (failure load) in OVX ddY mice
# Protocol: Bone strength is measured through failure load (FL).
# as §1, with “efficacy. […]” for “efficacy.”
# OVX ddY mice [7] = test: Histology of abdominal fat pad, uterus and liver in OVX ddY mice
# Protocol: as §1, §2, §3
# OVX ddY mice [8] = test: Femur histomorphometry in OVX ddY mice
# Protocol: as §1, §4
smiles,measurement,setting,value
"C[C@]12CC[C@@H]3c4ccc(O)cc4CC[C@H]3[C@@H]1CC[C@@H]2O [Estradiol, 17β-estradiol]",Body weight at sacrifice,OVX ddY mice [1],35.68 ± 2.19^ab g
same,"Body weight gain, treatment [D-C]",OVX ddY mice [1],6.96 ± 1.21^fg
same,Change in body weight gain for duration of administration vs OVX control,OVX ddY mice [1],−52.56%
same,"Change in food consumption vs OVX control, day 1",OVX ddY mice [1],0.87%
same,"Change in food consumption vs OVX control, day 3",OVX ddY mice [1],−5.24%
same,"Change in food consumption vs OVX control, day 7",OVX ddY mice [1],−13.04%
same,"Change in food consumption vs OVX control, day 28",OVX ddY mice [1],−16.34%
same,"Change in food consumption vs OVX control, day 56",OVX ddY mice [1],−20.01%
same,"Change in food consumption vs OVX control, day 83",OVX ddY mice [1],−27.82%
same,"Food consumption, day 1",OVX ddY mice [1],11.49 ± 1.41^a g/24 hrs/rat
same,"Food consumption, day 3",OVX ddY mice [1],10.53 ± 0.93^a g/24 hrs/rat
same,"Food consumption, day 7",OVX ddY mice [1],9.82 ± 0.93^ac g/24 hrs/rat
same,"Food consumption, day 28",OVX ddY mice [1],9.52 ± 1.01^ab g/24 hrs/rat
same,"Food consumption, day 56",OVX ddY mice [1],10.24 ± 0.98^ab g/24 hrs/rat
same,"Food consumption, day 83",OVX ddY mice [1],10.65 ± 1.54^de g/24 hrs/rat
same,Abdominal fat pad absolute wet-weight,OVX ddY mice [2],0.600 ± 0.536^bc g
same,Abdominal fat pad relative wet-weight,OVX ddY mice [2],1.656 ± 1.432^bc % of body weight
same,Change in abdominal fat pad absolute weight vs OVX control,OVX ddY mice [2],−82.20%
same,Change in abdominal fat pad relative weight vs OVX control,OVX ddY mice [2],−78.86%
same,Change in absolute liver weight vs OVX control,OVX ddY mice [2],5.37%
same,Change in relative liver weight vs OVX control,OVX ddY mice [2],27.16%
same,Change in uterus absolute weight vs OVX control,OVX ddY mice [2],288.64%
same,Change in uterus relative weight vs OVX control,OVX ddY mice [2],372.56%
same,Liver absolute wet-weight,OVX ddY mice [2],1.324 ± 0.073 g
same,Liver relative wet-weight,OVX ddY mice [2],3.724 ± 0.307^c % of body weight
same,Uterus absolute wet-weight,OVX ddY mice [2],0.107 ± 0.040^ac g
same,Uterus relative wet-weight,OVX ddY mice [2],0.303 ± 0.124^ac % of body weight
same,Change in femur absolute ash weight vs OVX control,OVX ddY mice [3],30.35%
same,Change in femur absolute dry weight vs OVX control,OVX ddY mice [3],14.93%
same,Change in femur absolute wet weight vs OVX control,OVX ddY mice [3],5.79%
same,Change in femur relative ash weight vs OVX control,OVX ddY mice [3],57.03%
same,Change in femur relative dry weight vs OVX control,OVX ddY mice [3],38.22%
same,Change in femur relative wet weight vs OVX control,OVX ddY mice [3],27.75%
same,Femur absolute ash weight,OVX ddY mice [3],0.033 ± 0.002^ac g
same,Femur absolute dry weight,OVX ddY mice [3],0.058 ± 0.004^gi
same,Femur absolute wet weight,OVX ddY mice [3],0.094 ± 0.007 g
same,Femur relative ash weight,OVX ddY mice [3],0.092 ± 0.007^ac % of body weight
same,Femur relative dry weight,OVX ddY mice [3],0.162 ± 0.016^gi % of body weight
same,Femur relative wet weight,OVX ddY mice [3],0.264 ± 0.032^ac % of body weight
same,Change in serum AST level vs OVX control (first series),OVX ddY mice [4],−33.98%
same,Change in serum AST level vs OVX control (second series),OVX ddY mice [4],−31.58%
same,Change in serum HDL level vs OVX control,OVX ddY mice [4],52.09%
same,Change in serum LDL level vs OVX control,OVX ddY mice [4],−26.87%
same,Change in serum TC level vs OVX control,OVX ddY mice [4],−25.94%
same,Change in serum TG level vs OVX control,OVX ddY mice [4],−34.80%
same,Change in serum bALP level vs OVX control,OVX ddY mice [4],39.72%
same,Change in serum estradiol level vs OVX control,OVX ddY mice [4],185.69%
same,Change in serum osteocalcin level vs OVX control,OVX ddY mice [4],−31.95%
same,Serum ALT,OVX ddY mice [4],52.00 ± 10.03^ac U/L
same,Serum AST,OVX ddY mice [4],107.13 ± 12.43^ac U/L
same,Serum HDL,OVX ddY mice [4],72.63 ± 11.04^ac mg/dl
same,Serum LDL,OVX ddY mice [4],133.00 ± 10.54^ac mg/dl
same,Serum TC,OVX ddY mice [4],132.75 ± 21.06^ac mg/dl
same,Serum TG,OVX ddY mice [4],97.88 ± 18.16^ac mg/dl
same,"Bone mineral density, right femur",OVX ddY mice [5],0.0259 ± 0.0008^bc g/cm^2
same,"Bone mineral density, total body",OVX ddY mice [5],0.0237 ± 0.0004^ac g/cm^2
same,Change in amount of abdominal fat vs OVX control,OVX ddY mice [5],−35.00%
same,Change in amount of body fat vs OVX control,OVX ddY mice [5],−33.02%
same,Change in mean total body bone mineral density vs OVX control,OVX ddY mice [5],9.86%
same,Change in total femur bone mineral density vs OVX control,OVX ddY mice [5],10.78%
same,"Fat density, abdominal cavity",OVX ddY mice [5],26.75 ± 4.22^ac % of body mass
same,"Fat density, total body",OVX ddY mice [5],23.42 ± 4.24^ac % of body mass
same,Change in bone strength of femur mid-shaft region vs OVX control,OVX ddY mice [6],61.41%
same,Change in abdominal fat pad thickness vs OVX control,OVX ddY mice [7],−52.23%
same,Change in mean adipocyte diameter vs OVX control,OVX ddY mice [7],−48.06%
same,Change in mean hepatocyte diameter vs OVX control,OVX ddY mice [7],−42.21%
same,Change in percentage of uterine glands in the uterine mucosa vs OVX control,OVX ddY mice [7],180.37%
same,Change in region with hepatic fatty degeneration vs OVX control,OVX ddY mice [7],−44.73%
same,Change in uterine epithelium mean thickness vs OVX control,OVX ddY mice [7],170.17%
same,Change in uterine mucosa mean thickness vs OVX control,OVX ddY mice [7],196.04%
same,Change in uterus total mean thickness vs OVX control,OVX ddY mice [7],181.27%
same,Hepatic steatosis regions,OVX ddY mice [7],43.43 ± 6.53^ac %
same,Left uterine horn epithelium thickness,OVX ddY mice [7],20.75 ± 4.52^ac μm
same,Left uterine horn mucosa layer thickness,OVX ddY mice [7],598.74 ± 153.51^ac μm
same,Left uterine horn total thickness,OVX ddY mice [7],1593.32 ± 371.85^bc μm
same,Mean adipocyte diameters,OVX ddY mice [7],67.49 ± 14.77^ac μm
same,Mean hepatocyte diameters,OVX ddY mice [7],18.45 ± 3.66^ac μm
same,Uterine gland regions,OVX ddY mice [7],34.93 ± 4.60^ac %
same,Change in femur OS/BS vs OVX control,OVX ddY mice [8],−37.50%
same,Change in femur cortical bone thickness vs OVX control,OVX ddY mice [8],21.85%
same,Change in femur mean trabecular bone number vs OVX control,OVX ddY mice [8],92.68%
same,Change in femur osteoclast cell number vs OVX control,OVX ddY mice [8],−55.15%
same,Change in femur trabecular bone mass vs OVX control,OVX ddY mice [8],73.01%
same,Change in mean length of femur trabecular bone vs OVX control,OVX ddY mice [8],89.04%
same,Change in mean thickness of femur trabecular bone vs OVX control,OVX ddY mice [8],70.56%
same,Left femur Cbt,OVX ddY mice [8],184.17 ± 8.40^eg
same,Left femur OS/BS,OVX ddY mice [8],13.12 ± 1.41^eg
same,Left femur Ocn,OVX ddY mice [8],7.63 ± 1.06^ab
same,Left femur TV/BV,OVX ddY mice [8],29.89 ± 5.24^ab
same,Left femur Tbl,OVX ddY mice [8],905.51 ± 146.34^g
same,Left femur Tbn,OVX ddY mice [8],9.88 ± 1.36^eg
same,Left femur Tbt,OVX ddY mice [8],55.34 ± 8.99^eg
